Results on 15 compounds are retold here after patent US9221795B2, “Phosphatidylinositol 3-kinase inhibitors” (Gilead Sciences, Inc., priority 2013, dated 2015).

Series [1] deals with PI3Kδ (Homo sapiens (Human), UniProt O00329). Description: Enzymatic activity of PI3K isoforms, TR-FRET assay (PI3Kδ). Particulars: 2× Km ATP, geometric mean if more than one value. The series is classed as biochemical. The procedure, abridged:
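Recombinant heterodimeric PI3Kβ or PI3Kδ (25-50 pM) was run with 2 μM PIP2 and 2× Km ATP (75-500 μM) at pH 7.4, for 30 min at 25° C. PIP3 formation was detected by TR-FRET displacement of labeled PIP3 from Eu-GRP-1. IC50 values in nM come from four-parameter fits, as geometric means.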
(TR-FRET usually uses a lanthanide donor and a delayed reading to cut background.)

The subject of series [2] is basophils. In words: Basophil activation in human whole blood (Flow2 CAST kit, CD63 flow cytometry). Type of series: cell-based. The procedure:
Effect on basophil activation was measured in human whole blood using the Flow2 CAST® kit (Buhlmann Laboratories AG, Baselstrasse, Switzerland) following the protocol provided by the manufacturer with minor modifications. Human whole blood was collected into K2-EDTA venipuncture tubes. Whole blood samples were treated with either DMSO (0.3% final) or a serial dilution of compounds in DMSO for 60 minutes at 37° C. Basophils were then activated either with anti-FcεRI mAb or with fMLP. To activate basophils using the anti-FcεRI mAb; 50 μL of whole blood was mixed with 110 μL of stimulation buffer (B-BAT-STB) and 20 μl of anti-FcεRI (B-BAT-STCON). To activate basophils with fMLP; 50 μL of whole blood was mixed with 80 μL of stimulation buffer (B-BAT-STB) and 50 μL of fMLP (B-CCR-FMLP). Stimulation buffer was used as a negative control. 20 μL of the staining reagent (combination of anti-human CD63-FITC and anti-human CCR3-PE mAbs) was then added to each tube. The tubes were mixed gently and incubated for 25 minutes at 37° C. Subsequently, erythrocytes were lysed and fixed by the addition of 2 mL of lysing solution (B-BAT-LYR) for 10 minutes at room temperature. Cells were pelleted by centrifugation at 1200 rpm for 10 minutes at room temperature in a swing-out rotor. Supernatant was aspirated and cell pellet resuspended in 400 μL of wash buffer. Flow cytometric analysis of the basophil activation was performed on a FC500MPL flow cytometer (Beckman Coulter Inc., Fullerton, Calif.). CCR3-staining and side scatter were applied to gate at least 200 basophils that expressed a high density of CCR3. The percent CD63 positive cells within the gated basophil population were determined in different treatment groups and normalized to the vehicle control (0.3% DMSO) with anti-FcεRI mAb of fMLP stimulus as 100%. Final compound concentration was adjusted to correct for dilution effect of added reagents. The EC50 values were calculated from the analysis of the dose-response curves to a four-parameter equation.
For orientation: A flow cytometer gives signals particle by particle.

The nature of series [3]: Hepatocyte stability (parent drug disappearance in cryopreserved hepatocytes). Type of series: in vitro ADME, human. Particulars: human, human hepatocytes. How it is done:
This assay was used to evaluate the metabolic stability of test articles (TA) following incubation in cryopreserved hepatocytes by monitoring parent drug disappearance via LC/MC. The TA was incubated with 1 million hepatocytes/mL at 2 μM substrate in duplicate. The incubation was carried out at 37° C. with 5% CO2 and saturating humidity. Samples were taken at 0, 1, 2, and 4 hours to monitor the disappearance of TA and a half-life (t1/2) was determined. Table 3 below summarizes the human hepatocyte t1/2 values (hours) collected in the Example.

Where [4] appears, read: class symbol, human whole blood, basophils activated with anti-FcεRI mAb or fMLP, percent CD63 positive cells.
Setting [5] is: human whole blood, basophils activated with anti-FcεRI mAb or fMLP, percent CD63 positive cells, geometric mean.
Setting [6] is: cryopreserved human hepatocytes, class symbol, 2 μM substrate, 37° C.
Setting [7] is: cryopreserved human hepatocytes, 2 μM substrate, 37° C., Table 3.
Where [8] appears, read: Homo sapiens, class symbol, human whole blood, basophils activated with anti-FcεRI mAb or fMLP, percent CD63 positive cells.
The mark [9] stands for this setting: Homo sapiens, human whole blood, basophils activated with anti-FcεRI mAb or fMLP, percent CD63 positive cells, geometric mean.
Setting [10] is: Homo sapiens, basophil activation in human whole blood, comparison Table 4.
The mark [11] stands for this setting: cryopreserved hepatocytes, comparison Table 4.

Structures are written as SMILES. A value given as a limit tells only on which side of the number the result lay.

Sequence of PI3Kδ (O00329 whole entry, canonical isoform): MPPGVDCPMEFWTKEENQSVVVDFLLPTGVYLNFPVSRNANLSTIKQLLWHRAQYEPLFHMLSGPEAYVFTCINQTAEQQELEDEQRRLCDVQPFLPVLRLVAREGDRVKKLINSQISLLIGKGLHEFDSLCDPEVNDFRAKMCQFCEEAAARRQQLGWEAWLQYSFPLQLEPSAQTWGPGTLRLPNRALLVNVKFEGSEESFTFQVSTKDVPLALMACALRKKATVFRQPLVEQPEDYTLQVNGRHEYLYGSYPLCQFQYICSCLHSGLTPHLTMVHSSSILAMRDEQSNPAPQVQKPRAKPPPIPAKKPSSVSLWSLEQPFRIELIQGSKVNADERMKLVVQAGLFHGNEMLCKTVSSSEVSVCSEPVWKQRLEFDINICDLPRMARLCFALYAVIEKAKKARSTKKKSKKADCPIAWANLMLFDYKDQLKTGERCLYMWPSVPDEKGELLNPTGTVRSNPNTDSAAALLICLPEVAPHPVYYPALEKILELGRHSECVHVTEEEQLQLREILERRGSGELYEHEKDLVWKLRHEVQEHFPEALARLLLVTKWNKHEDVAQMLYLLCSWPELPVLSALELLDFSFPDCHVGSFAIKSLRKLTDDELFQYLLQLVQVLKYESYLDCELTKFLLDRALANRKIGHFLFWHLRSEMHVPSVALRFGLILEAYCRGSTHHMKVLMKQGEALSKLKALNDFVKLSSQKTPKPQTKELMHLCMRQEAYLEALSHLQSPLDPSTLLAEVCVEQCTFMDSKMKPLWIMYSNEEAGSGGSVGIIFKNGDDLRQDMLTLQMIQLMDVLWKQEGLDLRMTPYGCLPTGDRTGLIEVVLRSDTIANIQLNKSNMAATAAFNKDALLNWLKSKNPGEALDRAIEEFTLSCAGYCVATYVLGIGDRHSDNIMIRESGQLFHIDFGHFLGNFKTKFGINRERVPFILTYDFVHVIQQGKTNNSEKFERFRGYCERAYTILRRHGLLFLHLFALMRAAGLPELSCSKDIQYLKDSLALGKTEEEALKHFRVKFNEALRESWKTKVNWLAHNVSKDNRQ
Sequence of PI3Kδ (P27986 whole entry partner, canonical isoform): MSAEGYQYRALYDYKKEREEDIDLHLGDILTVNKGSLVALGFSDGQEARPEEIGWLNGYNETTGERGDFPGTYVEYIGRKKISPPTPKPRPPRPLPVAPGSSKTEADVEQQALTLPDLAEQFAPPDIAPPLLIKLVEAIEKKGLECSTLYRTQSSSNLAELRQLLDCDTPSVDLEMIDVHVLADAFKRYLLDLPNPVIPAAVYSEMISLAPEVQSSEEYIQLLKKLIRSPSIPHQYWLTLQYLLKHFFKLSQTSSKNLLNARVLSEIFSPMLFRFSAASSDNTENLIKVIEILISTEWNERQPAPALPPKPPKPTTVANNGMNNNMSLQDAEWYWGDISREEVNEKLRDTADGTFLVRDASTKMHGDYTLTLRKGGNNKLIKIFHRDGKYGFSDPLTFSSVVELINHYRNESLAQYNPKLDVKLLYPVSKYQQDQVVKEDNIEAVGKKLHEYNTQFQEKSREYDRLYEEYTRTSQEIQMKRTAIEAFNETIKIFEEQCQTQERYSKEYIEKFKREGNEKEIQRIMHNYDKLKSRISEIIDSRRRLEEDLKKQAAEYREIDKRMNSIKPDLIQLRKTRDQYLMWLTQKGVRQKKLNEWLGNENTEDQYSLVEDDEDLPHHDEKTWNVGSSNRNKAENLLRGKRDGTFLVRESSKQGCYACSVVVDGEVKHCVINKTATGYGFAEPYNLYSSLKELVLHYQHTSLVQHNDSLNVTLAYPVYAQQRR

For the compound `Cc1ncccc1-n1c([C@H](C)Nc2nc(N)nc(N)c2C#N)nc2cccc(Cl)c2c1=O` (atropisomer, axis not shown) [Compound 39, (S)-2,4-diamino-6-(1-(5-chloro-3-(2-methylpyridin-3-yl)-4-oxo-3,4-dihydroquinazolin-2-yl)ethylamino)pyrimidine-5-carbonitrile], in series [1], half-maximal inhibition (IC50) required 1 nM. The EC50 (as a rule, the concentration at which the effect is half-maximal) in series [2] (setting [4]) was 1 to 10 nM; in series [2] (setting [5]), 2 nM. Further, the results for the half-life at 2 μM in series [3] (setting [6]) and in series [3] (setting [7]) were 3 to 6 h and 3 h, respectively.
For `Cc1ccncc1-n1c([C@H](C)Nc2nc(N)nc(N)c2C#N)nc2cccc(Cl)c2c1=O` (atropisomer, axis not shown) [Compound 41, (S)-2,4-diamino-6-(1-(5-chloro-3-(4-methylpyridin-3-yl)-4-oxo-3,4-dihydroquinazolin-2-yl)ethylamino)pyrimidine-5-carbonitrile] the same measures were 0.4 nM, 1 to 10 nM, 4 nM, above 10 h and above 10 h.
In the case of `Cc1ncc(F)cc1-n1c([C@H](C)Nc2nc(N)nc(N)c2C#N)nc2cccc(Cl)c2c1=O` (atropisomer, axis not shown) [Compound 45, (S)-2,4-diamino-6-(1-(5-chloro-3-(5-fluoro-2-methylpyridin-3-yl)-4-oxo-3,4-dihydroquinazolin-2-yl)ethylamino)pyrimidine-5-carbonitrile], the IC50 (as a rule, the concentration at which inhibition is half-maximal) in series [1] is 6 nM. In addition, the EC50 in series [2] (setting [8]) is 1 to 10 nM; in series [2] (setting [9]) it was 7 nM. Besides, the values for the half-life at 2 μM in series [3] (setting [6]) and in series [3] (setting [7]) were 3 to 6 h and 4 h, respectively.
In series [1], `C[C@H](Nc1nc(N)nc(N)c1C#N)c1nc2cccc(Cl)c2c(=O)n1-c1cccnc1` [Compound 1, (S)-2,4-diamino-6-((1-(5-chloro-4-oxo-3-(pyridin-3-yl)-3,4-dihydroquinazolin-2-yl)ethyl)amino)pyrimidine-5-carbonitrile] returned an IC50 of 0.6 nM. Moreover, the figures for the EC50 in series [2] (setting [10]), in series [2] (setting [8]) and in series [2] (setting [9]) were below 1 nM, below 1 nM and 0.9 nM, respectively. In addition, the half-life – broadly, how long it takes for the measured level to halve – at 2 μM in series [3] (setting [6]) is above 10 h; in series [3] (setting [7]) it was above 10 h; in series [3] (cryopreserved human hepatocytes, comparison Table 4) it was above 10 h.
In series [1], `CC[C@H](Nc1nc(N)nc(N)c1C#N)c1nc2cccc(Cl)c2c(=O)n1-c1cccnc1` [Compound 2, (S)-2,4-diamino-6-(1-(5-chloro-4-oxo-3-(pyridin-3-yl)-3,4-dihydroquinazolin-2-yl)propylamino)pyrimidine-5-carbonitrile] showed an IC50 of 2 nM. Further, the EC50 is 1 to 10 nM in series [2] (setting [8]) and 2 nM in series [2] (setting [9]). The half-life at 2 μM in series [3] (setting [6]) and in series [3] (setting [7]) was above 10 h throughout.
For the compound `N#Cc1c(N)nc(N)nc1N[C@H](c1nc2cccc(Cl)c2c(=O)n1-c1cccnc1)C1CC1` [Compound 3, (S)-2,4-diamino-6-((5-chloro-4-oxo-3-(pyridin-3-yl)-3,4-dihydroquinazolin-2-yl)(cyclopropyl)methylamino)pyrimidine-5-carbonitrile], the IC50 in series [1] is 0.6 nM. The EC50 in series [2] (setting [8]) was 1 to 10 nM; in series [2] (setting [9]) it was 2 nM. In addition, the half-life at 2 μM in series [3] (setting [6]) and in series [3] (setting [7]) was above 10 h throughout.
The compound `C[C@H](Nc1nc(N)nc(N)c1C#N)c1nc2ccc(F)cc2c(=O)n1-c1cccnc1` [Compound 5, (S)-2,4-diamino-6-(1-(6-fluoro-4-oxo-3-(pyridin-3-yl)-3,4-dihydroquinazolin-2-yl)ethylamino)pyrimidine-5-carbonitrile] had an IC50 in series [1] of 14 nM. In addition, the EC50 in series [2] (setting [8]) was 1 to 10 nM; in series [2] (setting [9]), 2 nM. In addition, the half-life at 2 μM in series [3] (setting [6]) and in series [3] (setting [7]) was above 10 h throughout.
For `C[C@H](Nc1nc(N)nc(N)c1C#N)c1nc2cccc(C(F)(F)F)c2c(=O)n1-c1cccnc1` [Compound 9, (S)-2,4-diamino-6-(1-(4-oxo-3-(pyridin-3-yl)-5-(trifluoromethyl)-3,4-dihydroquinazolin-2-yl)ethylamino)pyrimidine-5-carbonitrile], 2 nM corresponded to half-maximal inhibition in series [1] (IC50). Moreover, the EC50 is 1 to 10 nM in series [2] (setting [8]) and 3 nM in series [2] (setting [9]). Further, the half-life at 2 μM in series [3] (setting [6]) and in series [3] (setting [7]) was above 10 h each time.
As for `Cc1cccc2nc([C@H](C)Nc3nc(N)nc(N)c3C#N)n(-c3cncc(F)c3)c(=O)c12` [Compound 11, (S)-2,4-diamino-6-(1-(3-(5-fluoropyridin-3-yl)-5-methyl-4-oxo-3,4-dihydroquinazolin-2-yl)ethylamino)pyrimidine-5-carbonitrile], half-maximal inhibition in series [1] (IC50) required 0.8 nM. Also, the figures for the EC50 in series [2] (setting [8]) and in series [2] (setting [9]) were below 1 nM and 0.5 nM, respectively. The half-life at 2 μM in series [3] (setting [6]) was 3 to 6 h; in series [3] (setting [7]) it was 5 h.
In series [1], `C[C@H](Nc1nc(N)nc(N)c1C#N)c1nc2cccc(Cl)c2c(=O)n1-c1cncc(F)c1` [Compound 12, (S)-2,4-diamino-6-(1-(5-chloro-3-(5-fluoropyridin-3-yl)-4-oxo-3,4-dihydroquinazolin-2-yl)ethylamino)pyrimidine-5-carbonitrile] yielded an IC50 of 2 nM. Further, the EC50 was 1 to 10 nM in series [2] (setting [8]) and 1 nM in series [2] (setting [9]). Further, the half-life at 2 μM in series [3] (setting [6]) and in series [3] (setting [7]) was above 10 h in each case.
With `COc1cncc(-n2c([C@H](C)Nc3nc(N)nc(N)c3C#N)nc3cccc(Cl)c3c2=O)c1` [Compound 14, (S)-2,4-diamino-6-(1-(5-chloro-3-(5-methoxypyridin-3-yl)-4-oxo-3,4-dihydroquinazolin-2-yl)ethylamino)pyrimidine-5-carbonitrile], the IC50 in series [1] stood at 4 nM. In addition, the EC50 in series [2] (setting [8]) is 1 to 10 nM; in series [2] (setting [9]), 3 nM. Further, the figures for the half-life at 2 μM in series [3] (setting [6]) and in series [3] (setting [7]) were 6 to 10 h and 8 h, respectively.
On the same counts, the results for `C[C@H](Nc1nc(N)nc(N)c1C#N)c1nc2cccc(Cl)c2c(=O)n1-c1cncc(C(F)F)c1` [Compound 15, (S)-2,4-diamino-6-(1-(5-chloro-3-(5-(difluoromethyl)pyridin-3-yl)-4-oxo-3,4-dihydroquinazolin-2-yl)ethylamino)pyrimidine-5-carbonitrile] are 4 nM, 10 to 50 nM, 19 nM, above 10 h and above 10 h.
For `C[C@H](Nc1nc(N)nc(N)c1C#N)c1nc2cccc(Cl)c2c(=O)n1-c1cncc(C2CC2)c1` [Compound 19, (S)-2,4-diamino-6-(1-(5-chloro-3-(5-cyclopropylpyridin-3-yl)-4-oxo-3,4-dihydroquinazolin-2-yl)ethylamino)pyrimidine-5-carbonitrile], the IC50 in series [1] came out at 5 nM. Also, the EC50 is 1 to 10 nM in series [2] (setting [8]) and 7 nM in series [2] (setting [9]). Also, the half-life at 2 μM was 6 to 10 h in series [3] (setting [6]) and 7 h in series [3] (setting [7]).
Turning to `C[C@H](Nc1ncnc(N)c1C#N)c1nc2cccc(Cl)c2c(=O)n1-c1ccccc1` [Compound Y, reference compound], the EC50 in series [2] (setting [10]) was above 10 nM. Also, the half-life at 2 μM in series [3] (setting [11]) was below 2 h.
As to `C[C@H](Nc1nc(N)nc(N)c1C#N)c1nc2cccc(Cl)c2c(=O)n1-c1ccccc1` [Compound Z, reference compound], the EC50 in series [2] (basophil activation in human whole blood, comparison Table 4) was below 1 nM. For the same compound, in series [3] (setting [11]), the half-life at 2 μM was below 5 h.
